Experimental data: article PMC9218946, “Identification of a Subtype-Selective Allosteric Inhibitor of GluN1/GluN3 NMDA Receptors” (Frontiers in Pharmacology, 2022)

Key:
[1] = test system: GluN1/GluN3A with mutations W671A and L673A of the GluN3A subunit; assay: Whole-cell patch-clamp on transiently transfected CHO cells, GluN3A pre-M1 alanine mutants; type: cell-based
Experimental: (§1) To establish GluN1/GluN3A stable cell lines, the human GluN1-1a (GenBank: NP_015566.1) and the rat GluN3A (GenBank: NP_612555.1) genes were subcloned into the pcDNA5-FRT-To and pcDNA3.1 vectors, respectively. An EGFP tag was added to the C-terminus of GluN1 or GluN3A using a T2A linker for identification of transfected cells during transient transfection. Point mutations were introduced by site-directed mutagenesis using PrimeSTAR (Takara). The human GluN2A (GenBank: NP_000824.1) gene was subcloned into the pcDNA3.1 vector. The chimeras GluN3A^670-673 MWPL/LEPF and GluN2A^550-553 LEPF/MWPL were generated using In-Fusion HD Cloning kits (Takara). All constructs were confirmed by DNA sequencing (Beijing Genomics Institute).
(§2) The Flp-in T-Rex 293 cell lines (Invitrogen), stably expressing GluN1/GluN3A were grown in DMEM basal medium (Gibco) supplemented with 10% fetal bovine serum (FBS, Invitrogen), 15 μg/ml blasticidin S (Invitrogen), 50 μg/ml hygromycin B (Invitrogen) and 500 μg/ml G418 (Gibco). Expression in cell lines was induced with 1 μg/ml doxycycline (Invitrogen) 24–28 h prior to the experiments. Chinese hamster ovary (CHO) cells were grown in DMEM-F12 basal medium (Gibco) supplemented with 10% FBS. In the study on the action sites of WZB117, all whole-cell patch-clamp recordings were performed on CHO cells. […]

GluN2-containing NMDARs = assay: Whole-cell patch-clamp, NMDA-induced native currents in acutely isolated hippocampal neurons; type: cell-based, rat; settings: 10 μM WZB117
Experimental: (§3) Hippocampal neurons were obtained from Sprague-Dawley rats (aged P7-14). Briefly, the isolated hippocampal tissues were cut into approximately […] slices along the sagittal plane and were digested with 3 mg/ml proteinase (Sigma-Aldrich) at 32°C for 8 min. Then 1 mg/ml bovine serum albumin (Sangon Biotech) and 1 mg/ml trypsin inhibitor (Sigma-Aldrich) were used to stop the digestion. A few slices of the hippocampus were gently blown into single cells with the dissecting solution, then transferred to a dish and left to rest for 20 min before experiments. The dishes were preprocessed. Essentially, the bottom of the dish was covered with discarded cell suspension the day before the experiment and was washed and dried the next day, which prevented the neurons from sticking to the bottom too tightly. The dissecting solution contained (in mM): 82 Na2SO4, 30 K2SO4, 5 MgCl2, 1 Na pyruvate, 10 HEPES, and 20 glucose. The pH was adjusted to 7.2 using NaOH ([Xie et al., 2020]).
(§4) Whole-cell patch-clamp recordings were performed at room temperature (22–25°C) using an EPC-10 amplifier and Patch Master Software (HEKA). Pipettes were pulled from borosilicate glass capillaries (World Precision Instruments), and the resistances were 3–5 MΩ when filled with the intracellular solution. […]

[2] = molecular target: T1, native GluN1/GluN3 receptors (Rattus norvegicus, UniProt P35439+Q9R1M7); assay: Whole-cell patch-clamp, glycine-induced currents after CGP-78608 in acutely isolated hippocampal neurons; type: cell-based; settings: 10 μM WZB117; glycine-induced currents after incubation with CGP-78608
T1 construct: endogenous in cells; host or cells: acutely isolated hippocampal neurons, Sprague-Dawley rats P7-14
T1 sequence (Q9R1M7 24-1135, other chains not shown): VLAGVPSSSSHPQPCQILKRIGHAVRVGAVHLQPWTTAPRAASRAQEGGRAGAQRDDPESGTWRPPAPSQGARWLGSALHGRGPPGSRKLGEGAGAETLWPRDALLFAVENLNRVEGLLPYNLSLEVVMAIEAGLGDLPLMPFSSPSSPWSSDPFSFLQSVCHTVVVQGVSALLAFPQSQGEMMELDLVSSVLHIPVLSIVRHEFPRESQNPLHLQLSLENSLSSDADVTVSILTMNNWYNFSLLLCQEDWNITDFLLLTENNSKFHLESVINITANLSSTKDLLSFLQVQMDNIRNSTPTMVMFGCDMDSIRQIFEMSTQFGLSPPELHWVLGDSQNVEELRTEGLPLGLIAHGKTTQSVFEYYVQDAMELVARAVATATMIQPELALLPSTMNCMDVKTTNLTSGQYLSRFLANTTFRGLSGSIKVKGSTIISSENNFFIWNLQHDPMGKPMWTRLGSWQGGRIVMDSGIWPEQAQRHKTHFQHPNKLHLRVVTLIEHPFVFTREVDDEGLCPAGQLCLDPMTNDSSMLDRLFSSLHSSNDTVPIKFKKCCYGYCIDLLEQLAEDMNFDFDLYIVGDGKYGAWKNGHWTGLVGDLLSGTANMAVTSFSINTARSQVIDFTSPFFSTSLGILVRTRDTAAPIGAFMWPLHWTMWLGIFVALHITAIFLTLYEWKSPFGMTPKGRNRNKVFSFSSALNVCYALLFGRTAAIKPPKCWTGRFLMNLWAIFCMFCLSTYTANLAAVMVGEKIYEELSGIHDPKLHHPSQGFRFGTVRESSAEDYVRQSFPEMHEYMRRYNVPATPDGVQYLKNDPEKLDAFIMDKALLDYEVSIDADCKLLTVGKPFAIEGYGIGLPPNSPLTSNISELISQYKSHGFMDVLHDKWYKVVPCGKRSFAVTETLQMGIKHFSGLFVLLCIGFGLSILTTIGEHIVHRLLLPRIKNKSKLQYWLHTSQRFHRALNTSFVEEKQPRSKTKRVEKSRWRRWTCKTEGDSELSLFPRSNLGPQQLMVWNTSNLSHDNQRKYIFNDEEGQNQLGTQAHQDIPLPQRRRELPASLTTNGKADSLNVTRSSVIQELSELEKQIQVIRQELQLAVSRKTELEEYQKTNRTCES
Experimental: as §3, §4

[3] = molecular target: T2, chimera GluN1/GluN2A^550-553 LEPF/MWPL (Homo sapiens, UniProt Q05586+Q12879, E551W/F553L/L550M); assay: Whole-cell patch-clamp on transiently transfected CHO cells, GluN2A chimera; type: cell-based
T2 construct: expressed in transfected cells; host or cells: CHO, transient
T2 sequence (Q12879 23-1464 L550M/E551W/F553L, other chains not shown): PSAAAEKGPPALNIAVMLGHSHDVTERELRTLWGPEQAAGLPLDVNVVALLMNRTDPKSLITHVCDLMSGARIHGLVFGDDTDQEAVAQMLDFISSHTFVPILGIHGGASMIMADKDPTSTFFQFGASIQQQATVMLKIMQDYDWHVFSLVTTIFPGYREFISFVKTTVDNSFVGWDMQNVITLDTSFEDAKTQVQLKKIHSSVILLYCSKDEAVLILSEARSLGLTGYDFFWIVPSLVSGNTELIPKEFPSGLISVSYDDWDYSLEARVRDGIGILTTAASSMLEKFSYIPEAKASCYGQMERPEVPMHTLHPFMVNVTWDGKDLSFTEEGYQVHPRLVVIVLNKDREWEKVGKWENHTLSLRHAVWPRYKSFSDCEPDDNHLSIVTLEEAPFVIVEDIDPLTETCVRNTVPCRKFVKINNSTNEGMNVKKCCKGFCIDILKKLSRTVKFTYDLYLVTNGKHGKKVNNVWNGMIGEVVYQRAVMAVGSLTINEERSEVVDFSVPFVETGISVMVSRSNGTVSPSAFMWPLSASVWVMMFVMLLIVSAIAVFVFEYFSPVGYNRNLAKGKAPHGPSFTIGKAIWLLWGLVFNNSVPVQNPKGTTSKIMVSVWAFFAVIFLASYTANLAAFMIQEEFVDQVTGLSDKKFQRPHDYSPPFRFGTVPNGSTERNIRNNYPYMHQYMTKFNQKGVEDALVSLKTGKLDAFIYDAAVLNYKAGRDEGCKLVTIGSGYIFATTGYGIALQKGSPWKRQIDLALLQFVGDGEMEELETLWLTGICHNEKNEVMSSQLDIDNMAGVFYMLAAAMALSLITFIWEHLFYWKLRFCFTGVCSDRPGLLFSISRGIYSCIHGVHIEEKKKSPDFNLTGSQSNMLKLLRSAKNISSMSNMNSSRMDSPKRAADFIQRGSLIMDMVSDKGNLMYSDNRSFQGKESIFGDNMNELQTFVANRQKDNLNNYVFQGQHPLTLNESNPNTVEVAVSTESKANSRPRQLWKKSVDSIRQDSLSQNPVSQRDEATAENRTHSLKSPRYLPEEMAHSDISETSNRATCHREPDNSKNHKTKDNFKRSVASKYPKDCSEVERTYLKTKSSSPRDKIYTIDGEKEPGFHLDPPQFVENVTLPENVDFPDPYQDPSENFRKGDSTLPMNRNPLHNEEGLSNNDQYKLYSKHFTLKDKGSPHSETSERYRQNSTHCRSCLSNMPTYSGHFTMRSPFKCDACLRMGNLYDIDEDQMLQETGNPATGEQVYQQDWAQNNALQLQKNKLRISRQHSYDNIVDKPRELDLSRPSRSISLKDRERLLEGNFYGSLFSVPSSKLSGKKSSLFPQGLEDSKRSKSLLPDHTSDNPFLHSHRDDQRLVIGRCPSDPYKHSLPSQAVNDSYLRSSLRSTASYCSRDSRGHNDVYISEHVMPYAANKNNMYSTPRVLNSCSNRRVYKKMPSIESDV
Experimental: as §1, §2

KA receptors = assay: Whole-cell patch-clamp, KA-induced currents in acutely isolated hippocampal neurons; type: cell-based, rat; settings: 10 μM WZB117
Experimental: as §3, §4

I drug/I control [2]: 0.18 ± 0.03
sensitivity of chimera [3]: acquired higher sensitivity
SMILES: O=C(Oc1cccc(F)c1OC(=O)c1cccc(O)c1)c1cccc(O)c1 [WZB117, 3-fluoro-1,2-phenylene bis(3-hydroxybenzoate)]
influence of mutations on inhibitory effect [1]: significantly influenced the inhibitory effect
I drug/I control (GluN2-containing NMDARs): 0.73 ± 0.01
effect on KA-induced currents (KA receptors): little effect
